Test [1] concerns the target T1, IRAK4 (Homo sapiens, UniProt Q9NWZ3).
T1 sequence (Q9NWZ3 1-460): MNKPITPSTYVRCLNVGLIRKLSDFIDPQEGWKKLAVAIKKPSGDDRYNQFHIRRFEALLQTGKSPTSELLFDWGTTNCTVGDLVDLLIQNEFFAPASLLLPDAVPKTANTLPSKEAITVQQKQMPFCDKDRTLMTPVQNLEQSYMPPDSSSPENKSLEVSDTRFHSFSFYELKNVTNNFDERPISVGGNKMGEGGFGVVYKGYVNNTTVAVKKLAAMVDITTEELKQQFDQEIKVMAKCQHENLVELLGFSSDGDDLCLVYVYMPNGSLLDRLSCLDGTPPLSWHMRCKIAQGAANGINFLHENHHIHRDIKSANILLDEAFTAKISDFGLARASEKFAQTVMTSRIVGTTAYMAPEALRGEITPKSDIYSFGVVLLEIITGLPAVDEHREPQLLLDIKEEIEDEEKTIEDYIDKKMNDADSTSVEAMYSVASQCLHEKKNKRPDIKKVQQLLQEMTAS
The test is described as follows: OCI-LY-10 degradation assay (western blot, % IRAK4 degraded after 4 hours). The format is cell-based. Also noted: endogenous in cells; host or cells: OCI-LY10. The note with it: OCI-LY10 cells, 4 hours; for OCI-LY10 % IRAK4 Degradation (0.01 uM): 0.01 uM compound; for OCI-LY10 % IRAK4 Degradation (0.1 uM): 0.1 uM compound; for OCI-LY10 % IRAK4 Degradation (1 uM): 1 uM compound. In a few lines: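 IRAK4 loss after 4 h at 37° C was scored A (>50%), B (>20-50%) or C (<20%) from infrared western blots of RIPA lysates, 20-25 μg protein per lane. Compound was applied at 0.003-10 μM final to OCI-LY10 cells cultured in RPMI-1640 with 20% FBS and 55 μM 2-ME.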
Background: Immunoblotting shows a protein as a band on a membrane.

Test [2] concerns the target T1, IRAK4. Nature of the test: OCI-LY-10 MSD assay for IRAK4 DC50. The format is cell-based. Also noted: endogenous in cells; host or cells: OCI-LY10. Particulars: OCI-LY10 cells, 4 hr incubation, concentration required to degrade 50% of protein. The method, boiled down: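 IRAK4 level was quantified by MSD electrochemiluminescence (anti-IRAK4 capture antibody, rabbit anti-IRAK4 detection antibody) in RIPA lysates of OCI-Ly10 cells. Cells had been treated with compound for 4 hr (8-point, 3-fold serial dilution). Remaining protein versus concentration was fitted to a sigmoidal curve to give DC50.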

For `Cn1cc(NC(=O)c2coc(-c3ccnc(NCC(F)(F)F)c3)n2)c(C(=O)NCCCOCC(C)(C)COCCCc2cccc3c2n(C)c(=O)n3C2CCC(=O)NC2=O)n1` (stereo not shown) [I-297], in test [1], the “OCI-LY10 % IRAK4 Degradation (0.01 uM)” value is “C (<20% degradation)”, the “OCI-LY10 % IRAK4 Degradation (0.1 uM)” value is “C (<20% degradation)” and the “OCI-LY10 % IRAK4 Degradation (1 uM)” value is on record as “C (<20% degradation)”. Further, in test [2], the DC50 (as a rule, the concentration giving 50% degradation) is above 1000 nM.

Regarding `O=C1CCC(N2C(=O)c3ccc(N4CCN(CCOCCNC(=O)c5ccc(-n6cc(NC(=O)c7coc(-c8ccnc(NCC9CC9)c8)n7)c(C(F)F)n6)cc5)CC4)cc3C2=O)C(=O)N1` (stereo not shown) [I-277], in test [1], the “OCI-LY10 % IRAK4 Degradation (0.01 uM)” value is “C (<20% degradation)”, the “OCI-LY10 % IRAK4 Degradation (0.1 uM)” value is “A (>50% degradation)” and the “OCI-LY10 % IRAK4 Degradation (1 uM)” value was “A (>50% degradation)”. In test [2], the DC50 lay within 50 to 100 nM.

On to `NC(=O)c1nn(-c2ccc(C(=O)NCCOCCOCCN3CCC(Nc4cccc5c4C(=O)N(C4CCC(=O)NC4=O)C5=O)CC3)cc2)cc1NC(=O)c1coc(-c2ccnc(NCC3CC3)c2)n1` (stereo not shown) [I-290], for which, in test [1], the “OCI-LY10 % IRAK4 Degradation (0.01 uM)” value is “B (>20-50% degradation)”, the “OCI-LY10 % IRAK4 Degradation (0.1 uM)” value is “B (>20-50% degradation)” and the “OCI-LY10 % IRAK4 Degradation (1 uM)” value was “B (>20-50% degradation)”. This molecule registered a DC50 in test [2] above 1000 nM.

Consider `O=C1CCC(N2C(=O)c3cccc(NC4CCN(CCOCCOCCNC(=O)c5ccc(-n6cc(NC(=O)c7coc(-c8ccnc(NCC9CC9)c8)n7)c(C(F)F)n6)cc5)CC4)c3C2=O)C(=O)N1` (stereo not shown) [I-267], for which, in test [1], the “OCI-LY10 % IRAK4 Degradation (0.01 uM)” value is “C (<20% degradation)”, the “OCI-LY10 % IRAK4 Degradation (0.1 uM)” value is “A (>50% degradation)” and the “OCI-LY10 % IRAK4 Degradation (1 uM)” value is reported as “B (>20-50% degradation)”. Further, the DC50 in test [2] was in the range of 50 to 100 nM.

`NC(=O)c1nn(-c2ccc(CNCCOCCCc3cccc4c3C(=O)N(C3CCC(=O)NC3=O)C4=O)cc2)cc1NC(=O)c1coc(-c2ccnc(NCC(F)(F)F)c2)n1` (stereo not shown) [I-320]: in test [1], the “OCI-LY10 % IRAK4 Degradation (0.01 uM)” value is listed as “C (<20% degradation)”, the “OCI-LY10 % IRAK4 Degradation (0.1 uM)” value is on record as “B (>20-50% degradation)” and the “OCI-LY10 % IRAK4 Degradation (1 uM)” value is on record as “B (>20-50% degradation)”. The DC50 in test [2] was above 1000 nM.

Regarding `O=C1CCC(N2Cc3cc(NC4CCN(CCOCCOCCNCc5ccc(-n6cc(NC(=O)c7coc(-c8ccnc(NCC9CC9)c8)n7)c(C(F)F)n6)cc5)CC4)ccc3C2=O)C(=O)N1` (stereo not shown) [I-387], in test [1], the “OCI-LY10 % IRAK4 Degradation (0.01 uM)” value is “C (<20% degradation)”, the “OCI-LY10 % IRAK4 Degradation (0.1 uM)” value is on record as “C (<20% degradation)” and the “OCI-LY10 % IRAK4 Degradation (1 uM)” value is “B (>20-50% degradation)”. This molecule also gave a DC50 in test [2] above 1000 nM.

As for `O=C1CCC(N2C(=O)c3cccc(NC4CCN(CCOCCOCCOCCNC(=O)c5ccc(-n6cc(NC(=O)c7coc(-c8ccnc(NCC9CC9)c8)n7)c(C(F)F)n6)cc5)CC4)c3C2=O)C(=O)N1` (stereo not shown) [I-269], in test [1], the “OCI-LY10 % IRAK4 Degradation (0.01 uM)” value was “C (<20% degradation)”, the “OCI-LY10 % IRAK4 Degradation (0.1 uM)” value was “B (>20-50% degradation)” and the “OCI-LY10 % IRAK4 Degradation (1 uM)” value is recorded as “A (>50% degradation)”. In test [2], this molecule showed a DC50 below 50 nM.

`O=C1CCC(N2C(=O)c3ccc(CCCNCc4ccc(-n5cc(NC(=O)c6coc(-c7ccnc(NCC8CC8)c7)n6)c(C(F)F)n5)cc4)cc3C2=O)C(=O)N1` (stereo not shown) [I-371]: in test [1], the “OCI-LY10 % IRAK4 Degradation (0.01 uM)” value was “C (<20% degradation)”, the “OCI-LY10 % IRAK4 Degradation (0.1 uM)” value was “C (<20% degradation)” and the “OCI-LY10 % IRAK4 Degradation (1 uM)” value was “B (>20-50% degradation)”. In test [2], this molecule yielded a DC50 above 1000 nM.

For `CN(CCOCCOCCCc1ccc2c(c1)C(=O)N(C1CCC(=O)NC1=O)C2=O)C(=O)c1ccc(-n2cc(NC(=O)c3coc(-c4ccnc(NCC5CC5)c4)n3)c(C(N)=O)n2)cc1` (stereo not shown) [I-228], in test [1], the “OCI-LY10 % IRAK4 Degradation (0.01 uM)” value is “A (>50% degradation)”, the “OCI-LY10 % IRAK4 Degradation (0.1 uM)” value is recorded as “A (>50% degradation)” and the “OCI-LY10 % IRAK4 Degradation (1 uM)” value was “A (>50% degradation)”. Besides, the DC50 in test [2] was below 50 nM.

`O=C1CCC(N2C(=O)c3cccc(NC4CCN(CCOCCOCCNC(=O)c5ccc(-n6cc(NC(=O)c7coc(-c8ccnc(NCC(F)(F)F)c8)n7)c(C(F)F)n6)cc5)CC4)c3C2=O)C(=O)N1` (stereo not shown) [I-283]: in test [1], the “OCI-LY10 % IRAK4 Degradation (0.01 uM)” value was “A (>50% degradation)”, the “OCI-LY10 % IRAK4 Degradation (0.1 uM)” value is “A (>50% degradation)” and the “OCI-LY10 % IRAK4 Degradation (1 uM)” value is on record as “A (>50% degradation)”. This molecule displayed a DC50 in test [2] below 50 nM.

For `NC(=O)c1nn(-c2ccc(CNCC3CN(CCOCCNc4cccc5c4C(=O)N(C4CCC(=O)NC4=O)C5=O)CCO3)cc2)cc1NC(=O)c1coc(-c2ccnc(NCC(F)(F)F)c2)n1` (stereo not shown) [I-305, N-[3-carbamoyl-1-[4-[[[4-[2-[2-[[2-(2,6-dioxo-3-piperidyl)-1,3-dioxo-isoindolin-4-yl]amino]ethoxy]ethyl]morpholin-2-yl]methylamino]methyl]phenyl]pyrazol-4-yl]-2-[2-(2,2,2-trifluoroethylamino)-4-pyridyl]oxazole-4-carboxamide], in test [1], the “OCI-LY10 % IRAK4 Degradation (0.01 uM)” value is recorded as “A (>50% degradation)”, the “OCI-LY10 % IRAK4 Degradation (0.1 uM)” value is recorded as “A (>50% degradation)” and the “OCI-LY10 % IRAK4 Degradation (1 uM)” value is given as “A (>50% degradation)”. In addition, the DC50 in test [2] is below 50 nM.

As for `CN(CCOCCOCCCc1cccc2c1C(=O)N(C1CCC(=O)NC1=O)C2=O)C(=O)c1ccc(-n2cc(NC(=O)c3coc(-c4ccnc(NCC5CC5)c4)n3)c(C(N)=O)n2)cc1` (stereo not shown) [I-224], in test [1], the “OCI-LY10 % IRAK4 Degradation (0.01 uM)” value is listed as “B (>20-50% degradation)”, the “OCI-LY10 % IRAK4 Degradation (0.1 uM)” value is given as “A (>50% degradation)” and the “OCI-LY10 % IRAK4 Degradation (1 uM)” value was “A (>50% degradation)”. The DC50 in test [2] was below 50 nM.

`CN(CCOCCOCCCc1ccc2c(c1)C(=O)N(C1CCC(=O)NC1=O)C2=O)Cc1ccc(-n2cc(NC(=O)c3coc(-c4ccnc(NCC5CC5)c4)n3)c(C(N)=O)n2)cc1` (stereo not shown) [I-308]: in test [1], the “OCI-LY10 % IRAK4 Degradation (0.01 uM)” value is given as “B (>20-50% degradation)”, the “OCI-LY10 % IRAK4 Degradation (0.1 uM)” value was “A (>50% degradation)” and the “OCI-LY10 % IRAK4 Degradation (1 uM)” value is on record as “A (>50% degradation)”. Also, the DC50 in test [2] was 50 to 100 nM.

On to `O=C1CCC(N2Cc3cc(N4CCN(CCOCCOCCNCc5ccc(-n6cc(NC(=O)c7coc(-c8ccnc(NCC9CC9)c8)n7)c(C(F)F)n6)cc5)CC4)ccc3C2=O)C(=O)N1` (stereo not shown) [I-392], for which, in test [1], the “OCI-LY10 % IRAK4 Degradation (0.01 uM)” value is “B (>20-50% degradation)”, the “OCI-LY10 % IRAK4 Degradation (0.1 uM)” value is recorded as “A (>50% degradation)” and the “OCI-LY10 % IRAK4 Degradation (1 uM)” value is recorded as “A (>50% degradation)”. Also, the DC50 in test [2] lay within 50 to 100 nM.

`O=C1CCC(n2c(=O)oc3c(CCCOCCOCCNC(=O)c4ccc(-n5cc(NC(=O)c6coc(-c7ccnc(NCC8CC8)c7)n6)c(C(F)F)n5)cc4)cccc32)C(=O)N1` (stereo not shown) [I-265]: in test [1], the “OCI-LY10 % IRAK4 Degradation (0.01 uM)” value is on record as “B (>20-50% degradation)”, the “OCI-LY10 % IRAK4 Degradation (0.1 uM)” value is listed as “A (>50% degradation)” and the “OCI-LY10 % IRAK4 Degradation (1 uM)” value was “A (>50% degradation)”. For the same molecule, the DC50 in test [2] is below 50 nM.

For `CN(CCOCCOCCCc1ccc2c(c1)C(=O)N(C1CCC(=O)NC1=O)C2=O)C(=O)c1ccc(-n2cc(NC(=O)c3coc(-c4ccncc4)n3)c(C(N)=O)n2)cc1` (stereo not shown) [I-227], in test [1], the “OCI-LY10 % IRAK4 Degradation (0.01 uM)” value is reported as “B (>20-50% degradation)”, the “OCI-LY10 % IRAK4 Degradation (0.1 uM)” value is recorded as “A (>50% degradation)” and the “OCI-LY10 % IRAK4 Degradation (1 uM)” value was “A (>50% degradation)”. The molecule also registered a half-maximal degradation concentration (DC50) in test [2] below 50 nM.

Values taken from US10874743B2, “IRAK degraders and uses thereof” (Kymera Therapeutics, Inc., priority 2017, dated 2020).
